The target in one experiment is T1, human JAK1 (Homo sapiens, UniProt P23458).
T1 construct: human JAK1 (a.a. 837-1142); His tag (N); made in house; host or cells: insect cells (baculovirus)
As to the kind of experiment: In Vitro JAK Kinase Assay (HTRF, phosphorylation of a biotinylated peptide), JAK1. It counts as biochemical. The settings on record: catalytic domain a.a. 837-1142, assay of Example A. As to the method: (§1) The catalytic activity of JAK1, JAK2 or JAK3 was assayed by measuring the phosphorylation of a biotinylated peptide. The phosphorylated peptide was detected by homogenous time resolved fluorescence (HTRF). […] Reactions were carried out at room temperature for 1 hour and then stopped with 20 μL 45 mM EDTA, 300 nM SA-APC, 6 nM Eu-Py20 in assay buffer (Perkin Elmer, Boston, Mass.). Binding to the Europium labeled antibody took place for 40 minutes and HTRF signal was measured on a Fusion plate reader (Perkin Elmer, Boston, Mass.).

The target in another experiment is T2, human JAK2 (Homo sapiens, UniProt O60674).
T2 construct: JAK2 (a.a. 828-1132); His tag (N); made in house; host or cells: insect cells (baculovirus)
As to the kind of experiment: In Vitro JAK Kinase Assay (HTRF, phosphorylation of a biotinylated peptide), JAK2. It counts as biochemical. The following applies: assay of Example A. As to the method:
as §1

Data on 12 molecules can be found in US9359358B2, “Cyclohexyl azetidine derivatives as JAK inhibitors” (Incyte Holdings Corporation, priority 2011, dated 2016).

T1 sequence (P23458 849-1154): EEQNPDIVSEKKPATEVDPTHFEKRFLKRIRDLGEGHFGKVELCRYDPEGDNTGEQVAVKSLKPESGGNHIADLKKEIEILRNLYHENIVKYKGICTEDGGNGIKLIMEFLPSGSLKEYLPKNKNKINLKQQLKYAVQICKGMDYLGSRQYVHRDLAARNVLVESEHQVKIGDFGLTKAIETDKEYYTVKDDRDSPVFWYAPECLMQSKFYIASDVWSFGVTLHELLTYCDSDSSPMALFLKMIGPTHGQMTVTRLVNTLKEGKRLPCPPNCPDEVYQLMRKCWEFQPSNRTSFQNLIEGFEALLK
T2 sequence (O60674 828-1132): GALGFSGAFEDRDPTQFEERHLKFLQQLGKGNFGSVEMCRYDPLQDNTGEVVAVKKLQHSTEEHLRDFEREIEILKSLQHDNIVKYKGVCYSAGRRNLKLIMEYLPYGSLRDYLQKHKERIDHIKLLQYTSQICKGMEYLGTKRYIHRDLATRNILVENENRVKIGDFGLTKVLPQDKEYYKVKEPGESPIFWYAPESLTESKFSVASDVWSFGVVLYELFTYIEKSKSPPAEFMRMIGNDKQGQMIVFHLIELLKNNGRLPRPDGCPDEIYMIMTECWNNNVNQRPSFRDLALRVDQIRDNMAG

At human JAK1 (Table 4), `CCCNCc1cc(O[C@H]2CC[C@@H](N3CC(CC#N)(n4cc(-c5ncnc6[nH]ccc56)cn4)C3)CC2)nc(C(F)(F)F)n1.O=C(O)C(F)(F)F.O=C(O)C(F)(F)F.O=C(O)C(F)(F)F` [Example 32, {1-(cis-4-{[6-[(propylamino)methyl]-2-(trifluoromethyl)pyrimidin-4-yl]oxy}cyclohexyl)-3-[4-(7H-pyrrolo[2,3-d]pyrimidin-4-yl)-1H-pyrazol-1-yl]azetidin-3-yl}acetonitrile tris(trifluoroacetate)] returned an IC50 below 10 nM. Also, on human JAK2 (Table 4), the “JAK2/JAK1 IC50 ratio” value is “≧10”.

In the case of `CCC(C)NC(=O)c1cc(O[C@H]2CC[C@@H](N3CC(CC#N)(n4cc(-c5ncnc6[nH]ccc56)cn4)C3)CC2)nc(C(F)(F)F)c1.O=C(O)C(F)(F)F.O=C(O)C(F)(F)F` (relative stereo) [Example 88, N-(sec-butyl)-2-[(cis-4-{3-(cyanomethyl)-3-[4-(7H-pyrrolo[2,3-d]pyrimidin-4-yl)-1H-pyrazol-1-yl]azetidin-1-yl}cyclohexyl)oxy]-6-(trifluoromethyl)isonicotinamide bis(trifluoroacetate)], the IC50 against human JAK1 (Table 5) was below 10 nM. For the same molecule, the “JAK2/JAK1 IC50 ratio” value at human JAK2 (Table 5) is on record as “≧10”.

`N#CCC1(n2cc(-c3ncnc4[nH]ccc34)cn2)CN([C@H]2CC[C@@H](Oc3cc(CN4CCC[C@@H]4CO)cc(C(F)(F)F)n3)CC2)C1.O=C(O)C(F)(F)F.O=C(O)C(F)(F)F.O=C(O)C(F)(F)F` (stereo in doubt) [Example 93, {1-(cis-4-{[4-{[(2R)-2-(hydroxymethyl)pyrrolidin-1-yl]methyl}-6-(trifluoromethyl)pyridin-2-yl]oxy}cyclohexyl)-3-[4-(7H-pyrrolo[2,3-d]pyrimidin-4-yl)-1H-pyrazol-1-yl]azetidin-3-yl}acetonitrile tris(trifluoroacetate)] showed an IC50 against human JAK1 (Table 5) below 10 nM. For the same molecule, the “JAK2/JAK1 IC50 ratio” value at human JAK2 (Table 5) is “≧10”.

In the case of `CC(C)(F)c1cc(O[C@H]2CC[C@@H](N3CC(CC#N)(n4cc(-c5ncnc6[nH]ccc56)cn4)C3)CC2)nc(C(F)(F)F)n1.O=C(O)C(F)(F)F.O=C(O)C(F)(F)F` [Example 61, {1-(cis-4-{[6-(1-fluoro-1-methylethyl)-2-(trifluoromethyl)pyrimidin-4-yl]oxy}cyclohexyl)-3-[4-(7H-pyrrolo[2,3-d]pyrimidin-4-yl)-1H-pyrazol-1-yl]azetidin-3-yl}acetonitrile bis(trifluoroacetate)], on human JAK1 (Table 4), the IC50 was below 10 nM. For the same molecule, at human JAK2 (Table 4), the “JAK2/JAK1 IC50 ratio” value is listed as “≧10”.

For the molecule `N#CCC1(n2cc(-c3ncnc4[nH]ccc34)cn2)CN([C@H]2CC[C@@H](Oc3cc(CN4CCCC4)nc(C(F)(F)F)n3)CC2)C1` [Example 25, {1-(cis-4-{[6-(pyrrolidin-1-ylmethyl)-2-(trifluoromethyl)pyrimidin-4-yl]oxy}cyclohexyl)-3-[4-(7H-pyrrolo[2,3-d]pyrimidin-4-yl)-1H-pyrazol-1-yl]azetidin-3-yl}acetonitrile tris(trifluoroacetate)], at human JAK1 (Table 4), the IC50 is below 10 nM. Moreover, the “JAK2/JAK1 IC50 ratio” value at human JAK2 (Table 4) is on record as “≧10”.

`CC(C)(CO)NCc1cc(O[C@H]2CC[C@@H](N3CC(CC#N)(n4cc(-c5ncnc6[nH]ccc56)cn4)C3)CC2)nc(C(F)(F)F)n1.O=C(O)C(F)(F)F.O=C(O)C(F)(F)F.O=C(O)C(F)(F)F.O=C(O)C(F)(F)F` [Example 52, {1-(cis-4-{[6-{[(2-hydroxy-1,1-dimethylethyl)amino]methyl}-2-(trifluoromethyl)pyrimidin-4-yl]oxy}cyclohexyl)-3-[4-(7H-pyrrolo[2,3-d]pyrimidin-4-yl)-1H-pyrazol-1-yl]azetidin-3-yl}acetonitrile tetrakis(trifluoroacetate) (salt)]: the IC50 on human JAK1 (Table 4) is below 10 nM. Besides, the “JAK2/JAK1 IC50 ratio” value at human JAK2 (Table 4) is on record as “≧10”.

On human JAK1 (Table 5), `N#CCC1(n2cc(-c3ncnc4[nH]ccc34)cn2)CN([C@H]2CC[C@@H](Oc3cc(CO)cc(C(F)(F)F)n3)CC2)C1` [Example 64, {1-(cis-4-{[4-(hydroxymethyl)-6-(trifluoromethyl)pyridin-2-yl]oxy}cyclohexyl)-3-[4-(7H-pyrrolo[2,3-d]pyrimidin-4-yl)-1H-pyrazol-1-yl]azetidin-3-yl}acetonitrile bis(trifluoroacetate)] had an IC50 below 10 nM. The “JAK2/JAK1 IC50 ratio” value on human JAK2 (Table 5) is given as “≧10”.

`N#CCC1(n2cc(-c3ncnc4[nH]ccc34)cn2)CN([C@H]2CC[C@@H](Oc3cc(CNCCCO)cc(C(F)(F)F)n3)CC2)C1` [Example 70, {1-(cis-4-{[4-{[(3-hydroxypropyl)amino]methyl}-6-(trifluoromethyl)pyridin-2-yl]oxy}cyclohexyl)-3-[4-(7H-pyrrolo[2,3-d]pyrimidin-4-yl)-1H-pyrazol-1-yl]azetidin-3-yl}acetonitrile tris(trifluoroacetate)] registered a half-inhibitory concentration (IC50) against human JAK1 (Table 5) below 10 nM. Besides, on human JAK2 (Table 5), the “JAK2/JAK1 IC50 ratio” value was “≧10”.

For `COCCN(C)Cc1cc(O[C@H]2CC[C@@H](N3CC(CC#N)(n4cc(-c5ncnc6[nH]ccc56)cn4)C3)CC2)nc(C(F)(F)F)n1.O=C(O)C(F)(F)F.O=C(O)C(F)(F)F.O=C(O)C(F)(F)F` [Example 42, {1-(cis-4-{[6-{[(2-methoxyethyl)(methyl)amino]methyl}-2-(trifluoromethyl)pyrimidin-4-yl]oxy}cyclohexyl)-3-[4-(7H-pyrrolo[2,3-d]pyrimidin-4-yl)-1H-pyrazol-1-yl]azetidin-3-yl}acetonitrile tris(trifluoroacetate)], the IC50 at human JAK1 (Table 4) was below 10 nM. The “JAK2/JAK1 IC50 ratio” value on human JAK2 (Table 4) is listed as “≧10”.

At human JAK1 (Table 5), `N#CCC1(n2cc(-c3ncnc4[nH]ccc34)cn2)CN([C@H]2CC[C@@H](Oc3cc(CN4CC(O)C4)cc(C(F)(F)F)n3)CC2)C1` [Example 79, {1-(cis-4-{[4-[(3-hydroxyazetidin-1-yl)methyl]-6-(trifluoromethyl)pyridin-2-yl]oxy}cyclohexyl)-3-[4-(7H-pyrrolo[2,3-d]pyrimidin-4-yl)-1H-pyrazol-1-yl]azetidin-3-yl}acetonitrile tris(trifluoroacetate)] came in with an IC50 below 10 nM. Besides, the “JAK2/JAK1 IC50 ratio” value on human JAK2 (Table 5) is on record as “≧10”.

In turn, `N#CCC1(n2cc(-c3ncnc4[nH]ccc34)cn2)CN([C@H]2CC[C@@H](Oc3cc(CN4CC[C@@H](O)C4)cc(C(F)(F)F)n3)CC2)C1` [Example 95, {1-(cis-4-{[4-{[(3R)-3-hydroxypyrrolidin-1-yl]methyl}-6-(trifluoromethyl)pyridin-2-yl]oxy}cyclohexyl)-3-[4-(7H-pyrrolo[2,3-d]pyrimidin-4-yl)-1H-pyrazol-1-yl]azetidin-3-yl}acetonitrile pentakis(trifluoroacetate)] returned an IC50 against human JAK1 (Table 5) below 10 nM. For the same molecule, the “JAK2/JAK1 IC50 ratio” value at human JAK2 (Table 5) is “≧10”.

For `CCNCc1cc(O[C@H]2CC[C@@H](N3CC(CC#N)(n4cc(-c5ncnc6[nH]ccc56)cn4)C3)CC2)nc(C(F)(F)F)c1` [Example 65, {1-(cis-4-{[4-[(ethylamino)methyl]-6-(trifluoromethyl)pyridin-2-yl]oxy}cyclohexyl)-3-[4-(7H-pyrrolo[2,3-d]pyrimidin-4-yl)-1H-pyrazol-1-yl]azetidin-3-yl}acetonitrile tris(trifluoroacetate)], the IC50 against human JAK1 (Table 5) is below 10 nM. Moreover, on human JAK2 (Table 5), the “JAK2/JAK1 IC50 ratio” value was “≧10”.
